Our source for the IC50 values is patent US9376418B2, “Substituted pyridine spleen tyrosine kinase (SYK) inhibitors” (Merck Sharp & Dohme Corp., priority 2012, dated 2016).

The target of the assay is T1, recombinant human GST-SYK (Homo sapiens, UniProt P43405).
T1 construct: purchased Carna Biosciences 08-176
The assay can be described thus: Homogeneous Time-Resolved Fluorescence (HTRF) assay for the recombinant human Syk enzyme. In kind it is biochemical. As to conditions: HTRF assay, recombinant human GST-SYK; IC50 given as class symbols; read-out: rhSYK Activity. The essentials: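 Phosphotyrosine product from a biotinylated Syk substrate peptide was detected by HTRF (europium antibody/SA-APC, read after 30 min) following a 45-minute room-temperature reaction at 25 μM ATP, with […] preincubated 10 minutes with inhibitor.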
A general note: In TR-FRET formats the signal depends on donor and acceptor labels being close together.
In the case of `Cc1cc(Nc2nccc(C)n2)cc(-c2ccc(N[C@H]3CC[C@H](C(=O)O)CC3)nc2)c1` [Example 2.106, trans-4-[(5-{3-methyl-5-[(4-methylpyrimidin-2-yl)amino]phenyl}pyridin-2-yl)amino]cyclohexanecarboxylic acid], the IC50 was below 100 nM. With `Cc1cc(Nc2nccc(C(F)(F)F)n2)cc(-c2cncc(NCC(=O)O)c2)c1` [Example 15.20, N-[5-(3-methyl-5-{[4-(trifluoromethyl)pyrimidin-2-yl]amino}phenyl)pyridin-3-yl]glycine], the IC50 is below 100 nM. On to `CC1(C)CC(O)(c2ccc(-c3cccc(Nc4nccc(C(F)(F)F)n4)c3)cn2)CCC1C(=O)O` (stereo not drawn) [Example 9.43, 4-hydroxy-2,2-dimethyl-4-[5-(3-{[4-(trifluoromethyl)pyrimidin-2-yl]amino}phenyl)pyridin-2-yl]cyclohexanecarboxylic acid], for which the IC50 is below 100 nM. For `Cc1cc(Nc2nccc(C(F)(F)F)n2)cc(-c2ccc(C(=O)NS(N)(=O)=O)nc2)c1` [Example 16.2], the IC50 is below 100 nM.

Take `Cc1cc(Nc2nccc(C(F)(F)F)n2)cc(-c2ccc(C(C)(O)CO)nc2)c1` (stereo not drawn) [Example 9.56, 2-[5-(3-methyl-5-{[4-(trifluoromethyl)pyrimidin-2-yl]amino}phenyl)pyridin-2-yl]propane-1,2-diol]: the IC50 was below 100 nM. As to `Cc1cc(Nc2nccc(C(F)(F)F)n2)cc(-c2ccc(CC(C)(C)C(=O)O)nc2)c1` [Example 22.3, 2,2-Dimethyl-3-[5-(3-methyl-5-{[4-(trifluoromethyl)pyrimidin-2-yl]amino}phenyl)pyridin-2-yl]propanic acid], the IC50 is below 100 nM. The result for `Cc1cc(Nc2nccc(C(F)(F)F)n2)cc(-c2ccnc(NC(C)c3ccccn3)c2)c1` (stereo not drawn) [Example 15.34, N-(3-methyl-5-{2-[(1-pyridin-2-ylethyl)amino]pyridin-4-yl}phenyl)-4-(trifluoromethyl)pyrimidin-2-amine] reads 100 to 1000 nM. With `Cc1cc(Nc2nccc(C(F)(F)F)n2)cc(-c2ccc(CCC(=O)O)cn2)c1` [Example 2.30, 3-[6-(3-methyl-5-{[4-(trifluoromethyl)pyrimidin-2-yl]amino}phenyl)pyridin-3-yl]propanoic acid], the IC50 was below 100 nM.

Turning to `Cc1cc(Nc2nccc(C(F)(F)F)n2)cc(-c2cccnc2)c1` [Example 2.57, N-(3-methyl-5-pyridin-3-ylphenyl)-4-(trifluoromethyl)pyrimidin-2-amine], the IC50 is below 100 nM. In the case of `Cc1cc(Nc2nccc(C(F)(F)F)n2)cc(-c2ccc(NC3(C(=O)O)CC3)nc2)c1` [Example 7.129, 1-{[5-(3-methyl-5-{[4-(trifluoromethyl)pyrimidin-2-yl]amino}phenyl)pyridin-2-yl]amino}cyclopropanecarboxylic acid], the IC50 is below 100 nM.

As for `Cc1cc(Nc2nccc(C(F)(F)F)n2)cc(-c2ccc(NC3CNC(=O)C3)nc2)c1` (stereo not drawn) [Example 7.128, 4-{[5-(3-methyl-5-{[4-(trifluoromethyl)pyrimidin-2-yl]amino}phenyl)pyridin-2-yl]amino}pyrrolidin-2-one], the IC50 is below 100 nM. `Cc1cc(Nc2nccc(C(F)(F)F)n2)cc(-c2ccc(C(=O)NCCS(C)(=O)=O)nc2)c1` [Example 16.64, N-[2-(methylsulfonyl)ethyl]-5-(3-methyl-5-{[4-(trifluoromethyl)pyrimidin-2-yl]amino}phenyl)pyridine-2-carboxamide]: the IC50 was in the range of 100 to 1000 nM. As for `Cc1cc(Nc2nccc(C(F)(F)F)n2)cc(-c2cnc(NC(C)(C)C(=O)O)c(C(F)(F)F)c2)c1` [Example 7.123, 2-methyl-N-[5-(3-methyl-5-{[4-(trifluoromethyl)pyrimidin-2-yl]amino}phenyl)-3-(trifluoromethyl)pyridin-2-yl]alanine], the IC50 is below 100 nM. Consider `Cc1cc(Nc2nccc(C(F)(F)F)n2)cc(-c2ccc(N3CCCC(F)(F)C3)nc2)c1` [Example 7.53, N-{3-[6-(3,3-difluoropiperidin-1-yl)pyridin-3-yl]-5-methylphenyl}-4-(trifluoromethyl)pyrimidin-2-amine], for which the IC50 was 100 to 1000 nM. The result for `Cc1cc(Nc2nccc(C(F)(F)F)n2)cc(-c2ccnc(N3CCNCC3)c2)c1` [Example 2.126, N-[3-methyl-5-(2-piperazin-1-ylpyridin-4-yl)phenyl]-4-(trifluoromethyl)pyrimidin-2-amine] reads below 100 nM; that for `Cc1cc(Nc2nccc(C(F)(F)F)n2)cc(-c2ccnc(N3CCN(C)C(=O)C3)c2)c1` [Example 15.47, 1-methyl-4-[4-(3-methyl-5-{[4-(trifluoromethyl)pyrimidin-2-yl]amino}phenyl)pyridin-2-yl]piperazin-2-one], below 100 nM; that for `Cc1cc(Nc2nccc(C(F)(F)F)n2)cc(-c2ccc(N[C@@H](Cc3ccc(O)cc3)C(=O)O)nc2)c1` [Example 7.98, N-[5-(3-methyl-5-{[4-(trifluoromethyl)pyrimidin-2-yl]amino}phenyl)pyridin-2-yl]-L-tyrosine], below 100 nM.

Regarding `Cc1cc(Nc2nccc(C)n2)cc(-c2ccc(C(C)(O)[C@H]3CC[C@H](C(=O)O)CC3)nc2)c1` (single isomer, unassigned) [Example 9.26, trans-4-[(1R or 1S)-1-hydroxy-1-(5-{3-methyl-5-[(4-methylpyrimidin-2-yl)amino]phenyl}pyridin-2-yl)ethyl]cyclohexanecarboxylic acid], the IC50 was below 100 nM. Turning to `CC(=O)Nc1cc(Nc2nccc(C(F)(F)F)n2)cc(-c2ccncc2)c1` [Example 6.5, N-(3-pyridin-4-yl-5-{[4-(trifluoromethyl)pyrimidin-2-yl]amino}phenyl)acetamide], the IC50 was below 100 nM. As to `Cc1cc(Nc2nccc(C(F)(F)F)n2)cc(-c2ccnc([C@]3(O)CC[C@@H](O)CC3)c2)c1` [Example 9.3, Cis-1-[4-(3-methyl-5-{[4-(trifluoromethyl)pyrimidin-2-yl]amino}phenyl)pyridine-2-yl]cyclohexane-1,4-diol], the IC50 is below 100 nM. The result for `Cc1cc(Nc2nccc(C)n2)cc(-c2ccc(CCC(=O)O)cn2)c1` [Example 2.34, 3-(6-{3-methyl-5-[(4-methylpyrimidin-2-yl)amino]phenyl}pyridin-3-yl)propanoic acid] reads 100 to 1000 nM; that for `Cc1cc(Nc2nccc(C(F)(F)F)n2)cc(-c2ccc(NCC(=O)NCC(=O)O)nc2)c1` [Example 7.138, N-[5-(3-methyl-5-{[4-(trifluoromethyl)pyrimidin-2-yl]amino}phenyl)pyridin-2-yl]glycylglycine], below 100 nM.

Regarding `Cc1cc(Nc2nccc(C(F)(F)F)n2)cc(-c2ccc(NCc3ncnn3C)nc2)c1` [Example 7.21, N-[3-methyl-5-(6-{[(1-methyl-1H-1,2,4-triazol-5-yl)methyl]amino}pyridin-3-yl)phenyl]-4-(trifluoromethyl)pyrimidin-2-amine], the IC50 is below 100 nM.

`Cc1cc(Nc2nccc(C(F)(F)F)n2)cc(-c2ccc(N3CCCC4(CCCNC4=O)C3)nc2)c1` (stereo not drawn) [Example 7.9, 8-[5-(3-methyl-5-{[4-(trifluoromethyl)pyrimidin-2-yl]amino}phenyl)pyridin-2-yl]-2,8-diazaspiro[5.5]undecan-1-one]: the IC50 was in the range of 100 to 1000 nM. The result for `Cc1cc(Nc2nccc(C(F)(F)F)n2)cc(-c2ccc(NCC(=O)O)nc2)c1` [Example 7.87, N-[5-(3-methyl-5-{[4-(trifluoromethyl)pyrimidin-2-yl]amino}phenyl)pyridin-2-yl]glycine] reads below 100 nM. The result for `Cc1cc(Nc2nccc(C(F)(F)F)n2)cc(-c2ccnc(N3CCC(C(N)=O)CC3)c2)c1` [Example 15.46, 1-[4-(3-methyl-5-{[4-(trifluoromethyl)pyrimidin-2-yl]amino}phenyl)pyridin-2-yl]piperidine-4-carboxamide] reads below 100 nM; that for `Cc1cc(Nc2nccc(C(F)(F)F)n2)cc(-c2ccc(C3(O)CCC(=O)CC3)nc2)c1` [Example 9.54, 4-hydroxy-4-[5-(3-methyl-5-{[4-(trifluoromethyl)pyrimidin-2-yl]amino}phenyl)pyridin-2-yl]cyclohexanone], below 100 nM; that for `Cc1cc(Nc2nccc(C(F)(F)F)n2)cc(-c2ccc(NCC(C)O)nc2)c1` (stereo not drawn) [Example 7.40, 1-{[5-(3-methyl-5-{[4-(trifluoromethyl)pyrimidin-2-yl]amino}phenyl)pyridin-2-yl]amino}propan-2-ol], below 100 nM. For `CC[C@H](Nc1ccc(-c2cc(C)cc(Nc3nccc(C(F)(F)F)n3)c2)cn1)C(=O)O` [Example 7.103, (2S)-2-{[5-(3-methyl-5-{[4-(trifluoromethyl)pyrimidin-2-yl]amino}phenyl)pyridin-2-yl]amino}butanoic acid], the IC50 was below 100 nM. `Cc1cc(Nc2nccc(C(F)(F)F)n2)cc(-c2ccnc(N(C)CCC3OCCO3)c2)c1` [Example 15.57, N-[3-(2-{[2-(1,3-dioxolan-2-yl)ethyl](methyl)amino}pyridin-4-yl)-5-methylphenyl]-4-(trifluoromethyl)pyrimidin-2-amine]: the IC50 lay in the range of 100 to 1000 nM. Turning to `CNC(=O)C1CCN(c2cc(-c3cc(C)cc(Nc4nccc(C(F)(F)F)n4)c3)ccn2)CC1` [Example 15.58, N-methyl-1-[4-(3-methyl-5-{[4-(trifluoromethyl)pyrimidin-2-yl]amino}phenyl)pyridin-2-yl]piperidine-4-carboxamide], the IC50 was in the range of 100 to 1000 nM. For `Cc1cc(Nc2nccc(C3CC3)n2)cc(-c2ccc(C(C)(O)[C@H]3CC[C@H](C(=O)O)CC3)nc2)c1` (stereo partly drawn) [Example 9.6, trans-4-(1-(5-(3-(4-cyclopropylpyrimidin-2-ylamino)-5-methylphenyl)pyridin-2-yl)-1-hydroxyethyl)cyclohexanecarboxylic acid] the value was below 100 nM; for `Cc1cc(Nc2nccc(C(F)(F)F)n2)cc(-c2ccc(C(=O)N3CCCC34CCNC4=O)nc2)c1` (stereo not drawn) [Example 16.44, 1-{[5-(3-methyl-5-{[4-(trifluoromethyl)pyrimidin-2-yl]amino}phenyl)pyridin-2-yl]carbonyl}-1,7-diazaspiro[4.4]nonan-6-one], below 100 nM.
